Consider 16 compounds from publication PMC3565020 (ChemMedChem, 2012).

Values joined by “and” are separate entries in the source; they are usually repeats but may differ in a detail not shown here. Identical values can stand only once. Like-named read-outs stand apart in the source and are kept apart here. Some results are limits rather than exact numbers.

One may read the CC50 as the concentration giving 50% cytotoxicity. A word on the IC50: it is the midpoint of a concentration-inhibition curve.

The test system of data set [1] is LU-1 human lung carcinoma cell line. In words: Sulforhodamine. The class given is cell-based. The note with it: for Cytotoxicity LU-1 CC50 / CC50: LU-1 human lung carcinoma, SRB; for CC50: read-out: Cytotoxicity LU-1 CC50.
For data set [2], the system named is L. donovani promastigotes. In words: L. donovani promastigote viability, 72 hour Alamar blue assay. The note with it: for IC50: read-out: L. donovani Promastigotes IC50. The class given is cell-based, Leishmania donovani.
Data set [3] has as its system L. donovani axenic amastigotes. In words: L. donovani axenic amastigote viability, 72 hour Alamar blue assay. The class given is cell-based, Leishmania donovani. In general terms: Resazurin is reduced to fluorescent resorufin, in cell work by metabolically active cells.
The subject of another data set is J-774 murine macrophages. In words: Cytotoxicity against murine macrophage cells. The note with it: for Cytotoxicity J-774 murine macrophages CC50 / CC50: J-774, Alamar blue; for CC50: read-out: Cytotoxicity J-774 murine macrophages CC50.
A short description of another data set: Sulforhodamine. The class given is cell-based, human. Conditions: human.
Data set [4] is described as follows: Cytotoxicity against murine macrophage cells. The note with it: mouse.
In the next data set the test system is VERO cells. Conditions: previous report; cited from earlier work.
The mark [5] stands for this setting: 72 hour Alamar blue, pH 5.5, 37°C.
The mark [6] stands for this setting: read-out: L. donovani Axenic amastigotes IC50, 72 hour Alamar blue, pH 5.5, 37°C.

As for `COc1ccc2[nH]c3cc(O)c(CO)cc3c2c1` [Compound 11], in data set [1], the “Cytotoxicity LU-1 CC50” value is over 60 µg/mL and the 50% cytotoxic concentration (CC50) is over 247 µM. For the same compound, the “L. donovani Promastigotes IC50” value in data set [2] (72 hour Alamar blue, 26°C) was “NA (NA (Not active): IC50 > 40 μg/mL)”. For the same compound, in data set [3] (setting [5]), the “L. donovani Axenic amastigotes IC50” value came to 10.0 µg/mL. Moreover, the IC50 in data set [3] (setting [6]) is 41.1 µM. Further, the “Cytotoxicity J-774 murine macrophages CC50” value in the data set with J-774 murine macrophages was “NC (NC (Noncytotoxic): CC50 > 40 μg/mL)”.
With `COc1ccc2[nH]c3cc(OC)c(C=O)cc3c2c1` [Compound 8, 2,6-Dimethoxy-9H-carbazole-3-carbaldehyde], the CC50 (in the data set “Sulforhodamine” (LU-1 lung carcinoma cells); in data set [4] (J774 macrophage cells)) was over 40 µg/mL throughout.
In the data set “Sulforhodamine” (LU-1 lung carcinoma cells), `C[C@@H]1[C@H](O)[C@@H](C)/C=C/C=C/C=C/C=C/C=C/C=C/C=C/[C@H](O[C@@H]2O[C@H](C)[C@@H](O)[C@H](N)[C@@H]2O)C[C@@H]2O[C@](O)(C[C@@H](O)C[C@@H](O)[C@H](O)CC[C@@H](O)C[C@@H](O)CC(=O)O[C@H]1C)C[C@H](O)[C@H]2C(=O)O` [Amphotericin B, reference compound] returned a CC50 of over 40 µg/mL.
In the case of `O=Cc1cc2c(cc1O)[nH]c1ccc(O)cc12` [Compound 7, 2,6-Dihydroxy-9H-carbazole-3-carbaldehyde], the CC50 in “Sulforhodamine” (LU-1 lung carcinoma cells) is over 40 µg/mL; in data set [4] (J774 macrophage cells), 32 µg/mL and 141 µM.
In the case of `Cn1c2ccccc2c2ccccc21` [Compound 16], the “Cytotoxicity LU-1 CC50” value in data set [1] was “NC (NC (Noncytotoxic): CC50 > 40 μg/mL)”. For the same compound, in data set [2] (72 hour Alamar blue, 26°C), the “L. donovani Promastigotes IC50” value was 37.0 µg/mL and the IC50 is 204 µM. For the same compound, in data set [3] (setting [5]), the “L. donovani Axenic amastigotes IC50” value was “NA (NA (Not active): IC50 > 40 μg/mL)”. The “Cytotoxicity J-774 murine macrophages CC50” value in the data set on J-774 murine macrophages is reported as “NC (NC (Noncytotoxic): CC50 > 40 μg/mL)”.
Turning to `COc1ccc2[nH]c3cc(O)c(C)cc3c2c1` [Compound 13], in data set [1], the “Cytotoxicity LU-1 CC50” value worked out at 30 µg/mL and the CC50 was 132 µM. In data set [2] (72 hour Alamar blue, 26°C), the “L. donovani Promastigotes IC50” value turned out to be 17.7 µg/mL and the IC50 worked out at 78 µM. In addition, the “L. donovani Axenic amastigotes IC50” value in data set [3] (setting [5]) was 11.5 µg/mL. For the same compound, in data set [3] (setting [6]), the IC50 was 50.6 µM. Also, in the data set on J-774 murine macrophages, the “Cytotoxicity J-774 murine macrophages CC50” value stood at 20 µg/mL and the CC50 was determined as 88.1 µM.
`COc1ccc2[nH]c3ccc(C=O)cc3c2c1` [Compound 5g]: in data set [1], the “Cytotoxicity LU-1 CC50” value was “NC^[h] (NC (Noncytotoxic): CC50 > 40 μg/mL)”. Moreover, in data set [2] (72 hour Alamar blue, 26°C), the “L. donovani Promastigotes IC50” value worked out at 27 µg/mL and the half-maximal inhibitory concentration (IC50) stood at 120 µM. Besides, in data set [3] (setting [5]), the “L. donovani Axenic amastigotes IC50” value was “NA^[g] (NA (Not active): IC50 > 40 μg/mL)”. The “CC values in VERO cells” value in the data set with VERO cells is over 102 µg/mL. The “Cytotoxicity J-774 murine macrophages CC50” value in the data set with J-774 murine macrophages was “NC (NC (Noncytotoxic): CC50 > 40 μg/mL)”.
As to `N=C(N)c1ccc(OCCCCCOc2ccc(C(=N)N)cc2)cc1` [Pentamidine, reference compound], the CC50 in “Sulforhodamine” (LU-1 lung carcinoma cells) was 0.5 µg/mL and 1.5 µM. In addition, the IC50 in data set [2] (72 hour Alamar blue, 26°C) worked out at 3.5 µM; in data set [3] (setting [6]) it was 2.9 µM.
On to `CCn1c2ccccc2c2cc(C=O)ccc21` [Compound 14], for which, in data set [1], the “Cytotoxicity LU-1 CC50” value worked out at 25 µg/mL and the CC50 was found to be 112 µM. Moreover, in data set [2] (72 hour Alamar blue, 26°C), the “L. donovani Promastigotes IC50” value was 38.6 µg/mL and the concentration for half-maximal inhibition (IC50) stood at 173 µM. In data set [3] (setting [5]), the “L. donovani Axenic amastigotes IC50” value was “NA (NA (Not active): IC50 > 40 μg/mL)”. Further, in the data set with J-774 murine macrophages, the “Cytotoxicity J-774 murine macrophages CC50” value came to 21 µg/mL and the cytotoxic concentration (CC50) came to 94.1 µM.
Regarding `COc1ccc2[nH]c3cc(O)c(C=O)cc3c2c1` [Compound 6a, lansine], the “SI-1 (Selectivity Index-1) = CC50 (LU-1)/IC50 (amastigotes)” value in data set [1] (LU-1 vs axenic amastigotes) is 2. Further, the CC50 in “Sulforhodamine” is 16.5 µg/mL and 68.4 µM; in data set [4] it was 20 µg/mL and 82.9 µM. Further, the IC50 was 89.1 µM and 21.5 µg/mL in data set [2] (Leishmania donovani, 72 h); 11 µg/mL and 45.6 µM in data set [3] (Leishmania donovani, 72 h, pH 5.5, read-out: L. donovani Axenic amastigotes IC50). Also, the “CC values in VERO cells” value with VERO cells was over 102 µg/mL. Moreover, in the data set on J-774 murine macrophages (J-774 vs axenic amastigotes), the “SI-2 (Selectivity Index-2) = CC50 (J-774)/IC50 (amastigotes)” value is listed as 2.
With `O=Cc1cc2c(cc1O)[nH]c1ccc(OC(F)(F)F)cc12` [Compound 6d], in data set [1], the “Cytotoxicity LU-1 CC50” value was found to be 45 µg/mL and the CC50 was 152 µM. Further, in data set [2] (72 hour Alamar blue, 26°C), the “L. donovani Promastigotes IC50” value worked out at 3.7 µg/mL and the concentration for half-maximal inhibition (IC50) amounted to 12.6 µM. Also, in data set [3] (setting [5]), the “L. donovani Axenic amastigotes IC50” value worked out at 2.1 µg/mL. Also, the IC50 in data set [3] (setting [6]) turned out to be 7.1 µM. In addition, in the data set on J-774 murine macrophages, the “Cytotoxicity J-774 murine macrophages CC50” value turned out to be 8.0 µg/mL and the CC50 is 27.1 µM.
For the compound `O=Cc1cc2c(cc1O)[nH]c1ccc([N+](=O)[O-])cc12` [Compound 6f], the “Cytotoxicity LU-1 CC50” value in data set [1] was “NC (NC (Noncytotoxic): CC50 > 40 μg/mL)”. Further, the “L. donovani Promastigotes IC50” value in data set [2] (72 hour Alamar blue, 26°C) is reported as “NA (NA (Not active): IC50 > 40 μg/mL)”. In addition, the “L. donovani Axenic amastigotes IC50” value in data set [3] (setting [5]) is given as “NA (NA (Not active): IC50 > 40 μg/mL)”. In addition, in the data set with J-774 murine macrophages, the “Cytotoxicity J-774 murine macrophages CC50” value was 20.0 µg/mL and the CC50 stood at 78 µM.
In the case of `O=Cc1cc2c(cc1O)[nH]c1ccccc12` [Compound 6b], in data set [1], the “Cytotoxicity LU-1 CC50” value came out at 45 µg/mL and the CC50 amounted to 213 µM. Moreover, in data set [2] (72 hour Alamar blue, 26°C), the “L. donovani Promastigotes IC50” value was 35.4 µg/mL and the IC50 stood at 168 µM. Besides, the “L. donovani Axenic amastigotes IC50” value in data set [3] (setting [5]) was 11.0 µg/mL. Besides, in data set [3] (setting [6]), the IC50 was 52 µM. Further, in the data set with J-774 murine macrophages, the “Cytotoxicity J-774 murine macrophages CC50” value came out at 21 µg/mL and the CC50 stood at 99.4 µM.
Turning to `COc1ccc2c(c1)c1cc(C=O)c(OC)cc1n2C` [Compound 9, 2,6-dimethoxy-9-methyl-9H-carbazole-3-carbaldehyde], the CC50 (in “Sulforhodamine” (LU-1 lung carcinoma cells); in data set [4] (J774 macrophage cells)) was over 40 µg/mL each time.
As for `Oc1ccc2c(c1)[nH]c1ccccc12` [Compound 15], in data set [1], the “Cytotoxicity LU-1 CC50” value was 40 µg/mL and the CC50 is 218 µM. For the same compound, in data set [2] (72 hour Alamar blue, 26°C), the “L. donovani Promastigotes IC50” value was determined as 28.5 µg/mL and the half-inhibitory concentration (IC50) came to 156 µM. Further, the “L. donovani Axenic amastigotes IC50” value in data set [3] (setting [5]) stood at 10.0 µg/mL. Moreover, the IC50 in data set [3] (setting [6]) turned out to be 54.6 µM. Besides, the “Cytotoxicity J-774 murine macrophages CC50” value with J-774 murine macrophages is given as “NC (NC (Noncytotoxic): CC50 > 40 μg/mL)”.
`O=Cc1cc2c(cc1O)[nH]c1ccc(C(F)(F)F)cc12` [Compound 6c]: in data set [1], the “Cytotoxicity LU-1 CC50” value worked out at 21 µg/mL and the cytotoxic concentration (CC50) came out at 75.2 µM. In data set [2] (72 hour Alamar blue, 26°C), the “L. donovani Promastigotes IC50” value worked out at 7.3 µg/mL and the IC50 was 26.2 µM. Moreover, the “L. donovani Axenic amastigotes IC50” value in data set [3] (setting [5]) was determined as 6.0 µg/mL. In addition, the IC50 in data set [3] (setting [6]) worked out at 21.5 µM. Further, in the data set with J-774 murine macrophages, the “Cytotoxicity J-774 murine macrophages CC50” value came out at 9.8 µg/mL and the CC50 stood at 35.1 µM.
